The assay concerns L1210 leukemia ip in BDF1 mice, survival T/C. Put plainly: NCI In Vivo Anticancer Drug Screen. Data for tumor model L1210 Leukemia (intraperitoneal) in B6D2F1 (BDF1) mice. As to conditions: endpoint: mean survival time, higher = longer survival. The procedure, abridged: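 Each compound was tested against a transplantable tumor grown in mice. The endpoint was survival, with treated animals benchmarked against vehicle controls as a simple ratio.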

The mark [1] stands for this setting: dose: 50.0 mg/kg/injection, schedule: Q01DX001 (ip), vehicle: saline.
Where [2] appears, read: dose: 100.0 mg/kg/injection, schedule: Q04DX003 (ip), vehicle: saline.
Setting [3] is: dose: 100.0 mg/kg/injection, schedule: Q04DX003 (ip), vehicle: Klucel (hydroxypropylcellulose) (HPC).
[4] abbreviates: dose: 200.0 mg/kg/injection, schedule: Q04DX003 (ip), vehicle: Klucel (hydroxypropylcellulose) (HPC).
[5] abbreviates: dose: 400.0 mg/kg/injection, schedule: Q04DX003 (ip), vehicle: Klucel (hydroxypropylcellulose) (HPC).
Where [6] appears, read: dose: 100.0 mg/kg/injection, schedule: Q01DX009 (ip), vehicle: saline.
[7] abbreviates: dose: 200.0 mg/kg/injection, schedule: Q01DX009 (ip), vehicle: saline.
Where [8] appears, read: dose: 200.0 mg/kg/injection, schedule: Q04DX003 (ip), vehicle: saline.
Where [9] appears, read: dose: 400.0 mg/kg/injection, schedule: Q01DX009 (ip), vehicle: saline.
The mark [10] stands for this setting: dose: 25.0 mg/kg/injection, schedule: Q01DX009 (ip), vehicle: saline with Tween-80.
[11] abbreviates: dose: 50.0 mg/kg/injection, schedule: Q01DX009 (ip), vehicle: saline with Tween-80.
The mark [12] stands for this setting: dose: 100.0 mg/kg/injection, schedule: Q01DX009 (ip), vehicle: saline with Tween-80.
The mark [13] stands for this setting: dose: 400.0 mg/kg/injection, schedule: Q04DX002 (ip), vehicle: saline with Tween-80.
The mark [14] stands for this setting: dose: 100.0 mg/kg/injection, schedule: Q04DX002 (ip), vehicle: Klucel (hydroxypropylcellulose) (HPC).
Setting [15] is: dose: 200.0 mg/kg/injection, schedule: Q04DX002 (ip), vehicle: Klucel (hydroxypropylcellulose) (HPC).
Setting [16] is: dose: 400.0 mg/kg/injection, schedule: Q04DX002 (ip), vehicle: Klucel (hydroxypropylcellulose) (HPC).
The mark [17] stands for this setting: dose: 50.0 mg/kg/injection, schedule: Q01DX009 (ip), vehicle: saline.

Where “and” joins values, the source holds several entries; their conditions need not be identical. Identical values can stand only once. Inconclusive results and toxic doses are left out.

Turning to `COc1ccc(OC)c(CC(C)O)c1` (configuration not stated), the T/C (dose: 100.0 mg/kg/injection, schedule: Q01DX001 (ip), vehicle: carboxymethylcellulose (CMC)) was 101 % of control; the T/C (dose: 200.0 mg/kg/injection, schedule: Q01DX001 (ip), vehicle: carboxymethylcellulose (CMC)) is 101 % of control; the T/C (dose: 400.0 mg/kg/injection, schedule: Q01DX001 (ip), vehicle: carboxymethylcellulose (CMC)) is 98 % of control.
`CCN(CC[n+]1ccccc1)c1ccccc1` (tested in a mixture with another compound): the T/C under setting [1] was 103 % of control.
Turning to `O=C(C[n+]1ccccc1Cc1ccccc1)c1ccccc1`, the T/C (dose: 100.0 mg/kg/injection, schedule: Q04DX003 (ip), vehicle: saline with Tween-80) was 94 % of control and the T/C under setting [2] was 102 % of control.
As for `CSc1cccc(NC(=O)NCCCl)c1`, the T/C runs as follows: under setting [3], 104 % of control; under setting [4], 103 % of control; under setting [5], 93 % of control.
For the compound `CC1(C)C2C=CC1C(CO)(CO)C2` (configuration not stated), the T/C is 105 % of control under setting [6]; 103 % of control under setting [2]; 97 % of control under setting [7]; 92 % of control under setting [8]; 100 % of control under setting [9]; 109 % of control (dose: 400.0 mg/kg/injection, schedule: Q04DX003 (ip), vehicle: saline).
For the compound `C[N+]1(CCCNC2=CC(=O)C(NCCC[N+]3(C)CCCCC3)=CC2=O)CCCCC1`, where the note is “dose: 0.5 mg/kg/injection, schedule: Q01DX001 (ip), vehicle: saline”, the T/C is 105 % of control.
`O=C(O)CN1C(=O)c2ccccc2C1=O`: the T/C reads like this: under setting [10], 91 % of control; under setting [11], 98 % of control; under setting [12], 98 % of control; (dose: 100.0 mg/kg/injection, schedule: Q04DX002 (ip), vehicle: saline with Tween-80) 100 % of control; (dose: 200.0 mg/kg/injection, schedule: Q04DX002 (ip), vehicle: saline with Tween-80) 103 % of control; under setting [13], 95 % of control.
Consider `O=C(c1ccc(F)cc1)c1ccc2ccccc2c1C(=O)O`, for which the T/C is 89 % of control under setting [14], 92 % of control under setting [15] and 99 % of control under setting [16].
As to `CON(C)C(=O)CCN1CC1`, the T/C is 97 % of control (dose: 10.0 mg/kg/injection, schedule: Q01DX009 (ip), vehicle: saline); 94 % of control (dose: 20.0 mg/kg/injection, schedule: Q01DX009 (ip), vehicle: saline); 100 % of control (dose: 20.0 mg/kg/injection, schedule: Q04DX003 (ip), vehicle: saline); 97 % of control (dose: 40.0 mg/kg/injection, schedule: Q01DX009 (ip), vehicle: saline); 100 % of control (dose: 40.0 mg/kg/injection, schedule: Q04DX003 (ip), vehicle: saline); 104 % of control (dose: 80.0 mg/kg/injection, schedule: Q04DX003 (ip), vehicle: saline). Under setting [2], the T/C is 94 % of control.
In the case of `O=C(CCCC(=O)N/N=C/c1cc(Br)ccc1O)N/N=C\c1cc(Br)ccc1O`, the T/C runs as follows: under setting [1], 93 % of control; (dose: 100.0 mg/kg/injection, schedule: Q01DX001 (ip), vehicle: saline) 98 % of control; under setting [6], 89 % of control; (dose: 200.0 mg/kg/injection, schedule: Q01DX001 (ip), vehicle: saline) 98 % of control; (dose: 400.0 mg/kg/injection, schedule: Q01DX001 (ip), vehicle: saline) 96 % of control; under setting [9], 92 % of control.
Turning to `O=C(Cl)c1cc(Cl)nc2c(Cl)cc(Cl)cc12`, the T/C (dose: 75.0 mg/kg/injection, schedule: Q01DX001 (ip), vehicle: saline) is 86 % of control; the T/C (dose: 150.0 mg/kg/injection, schedule: Q01DX001 (ip), vehicle: saline) is 94 % of control; the T/C (dose: 300.0 mg/kg/injection, schedule: Q01DX001 (ip), vehicle: saline) is 90 % of control.
For the compound `CCc1cccc[n+]1Cc1ccccc1`, the T/C under setting [17] was 90 % of control.
For the compound `Cc1cc(N(CCOS(C)(=O)=O)CCOS(C)(=O)=O)ccc1N=O`, the T/C (dose: 62.5 micrograms/kg/injection, schedule: Q01DX010 (ip), vehicle: saline) was 121 % of control.
As for `O=C1C(Br)CS(=O)(=O)CC1Br` (configuration not stated), the T/C (dose: 6.25 mg/kg/injection, schedule: Q01DX009 (ip), vehicle: saline) was 96 % of control; the T/C (dose: 8.75 mg/kg/injection, schedule: Q01DX009 (ip), vehicle: saline) was 106 % of control; the T/C (dose: 12.5 mg/kg/injection, schedule: Q01DX009 (ip), vehicle: saline) was 86 % of control; the T/C (dose: 12.5 mg/kg/injection, schedule: Q04DX003 (ip), vehicle: Klucel (hydroxypropylcellulose) (HPC)) is 96 % of control; the T/C (dose: 15.0 mg/kg/injection, schedule: Q01DX001 (ip), vehicle: carboxymethylcellulose (CMC)) was 102 % of control; the T/C (dose: 17.5 mg/kg/injection, schedule: Q01DX009 (ip), vehicle: saline) was 98 % of control. Besides, the T/C is 91 % of control (dose: 25.0 mg/kg/injection, schedule: Q01DX009 (ip), vehicle: saline); 94 % of control (dose: 25.0 mg/kg/injection, schedule: Q04DX003 (ip), vehicle: Klucel (hydroxypropylcellulose) (HPC)); 106 % of control (dose: 30.0 mg/kg/injection, schedule: Q01DX001 (ip), vehicle: carboxymethylcellulose (CMC)).
Regarding `Clc1cccc(N=C(Oc2cccc(Cl)c2)c2ccccc2)c1`, the T/C is, setting by setting: (dose: 25.6 mg/kg/injection, schedule: Q04DX002 (ip), vehicle: saline with Tween-80) 176 % of control; (dose: 64.0 mg/kg/injection, schedule: Q04DX002 (ip), vehicle: saline with Tween-80) 101 % of control; (dose: 160.0 mg/kg/injection, schedule: Q04DX002 (ip), vehicle: saline with Tween-80) 97 % of control; under setting [13], 93 % of control.
As for `Nc1ccc(CCCCc2c(N)nc(N)nc2N)cc1`, the T/C was 97 % of control under setting [3] and 93 % of control under setting [4].
With `ClCc1c(Cl)cccc1Cl`, the T/C by setting is: under setting [14], 97 % of control; under setting [15], 97 % of control; under setting [16], 97 % of control.
`Cn1ncc(C(=O)O)c1N`: the T/C under setting [10] was 102 % of control; the T/C under setting [11] was 111 % of control; the T/C under setting [12] was 100 % of control; the T/C (dose: 200.0 mg/kg/injection, schedule: Q01DX009 (ip), vehicle: saline with Tween-80) is 94 % of control; the T/C (dose: 400.0 mg/kg/injection, schedule: Q01DX009 (ip), vehicle: saline with Tween-80) is 96 % of control.
`CCN(CC)CCCC(C)NCCCN` (configuration not stated): the T/C reads like this: under setting [17], 94 % of control; under setting [6], 100 % of control and 106 % of control; under setting [2], 90 % of control; under setting [7], 104 % of control and 92 % of control; under setting [8], 90 % of control.
For the compound `COc1ccc(Br)c(CCC(C)C)c1OC`, the T/C runs as follows: (dose: 100.0 mg/kg/injection, schedule: Q01DX009 (ip), vehicle: Klucel (hydroxypropylcellulose) (HPC)) 92 % of control; under setting [3], 108 % of control; (dose: 200.0 mg/kg/injection, schedule: Q01DX009 (ip), vehicle: Klucel (hydroxypropylcellulose) (HPC)) 95 % of control; under setting [4], 108 % of control; (dose: 400.0 mg/kg/injection, schedule: Q01DX009 (ip), vehicle: Klucel (hydroxypropylcellulose) (HPC)) 101 % of control; under setting [5], 104 % of control.
For the compound `O=C1NC2CCCCCCC12` (configuration not stated), the T/C reads like this: (dose: 100.0 mg/kg/injection, schedule: Q04DX002 (ip), vehicle: saline + alcohol) 119 % of control; (dose: 200.0 mg/kg/injection, schedule: Q04DX002 (ip), vehicle: saline + alcohol) 105 % of control; (dose: 400.0 mg/kg/injection, schedule: Q04DX002 (ip), vehicle: saline + alcohol) 105 % of control.
Take `COC(=O)NS(=O)(=O)/C=C\n1c2ccccc2c2ccccc21`: the T/C is, setting by setting: (dose: 75.0 mg/kg/injection, schedule: Q01DX009 (ip), vehicle: Klucel (hydroxypropylcellulose) (HPC)) 98 % of control; (dose: 150.0 mg/kg/injection, schedule: Q01DX009 (ip), vehicle: Klucel (hydroxypropylcellulose) (HPC)) 109 % of control.

The values are drawn from PubChem BioAssay AID248 (DTP/NCI, 2004).
